Nine compounds from paper PMC10344917, “Affinity and cooperativity modulate ternary complex formation to drive targeted protein degradation” (Nature Communications, 2023) can be followed below.

Each structure is given as a SMILES string.

One test concerns the target T1, VHL/EloB/EloC (VBC) (Homo sapiens, UniProt P40337).
T1 construct: VHL (54-213), ElonginB (17-112) ElonginC (1-104); made in house
Put plainly: SPR binary binding of PROTAC to VBC-functionalized surface. The conditions noted are these: SPR; error SEM, N = 3; read-out: KLP (binary binding affinity between E3 ligase VHL and PROTAC). The protocol: (§1) SPR experiments were performed on a Biacore 8 K or T200 instrument (Cytiva). […] The running buffer during immobilization was PBS with 0.005% P20. Either high-density (3000-4000 RU) or low-density (300-400 RU) VBC-functionalized surfaces were created, followed by equilibration in the running buffer for 3 h.
PROTACs (10 mM stocks in 100% DMSO) were diluted to 400 nM in a running buffer (20 mM Tris pH 7.5, 200 mM NaCl, 0.02% P20). This stock solution was then serially diluted in the running buffer containing final 2% DMSO. […] For SMARCA2 analysis, biotinylated proteins were introduced on a Series S streptavidin (SA) sensor chip at high-density (3000-4000 RU).
(§2) Raw sensorgrams were processed by performing double reference subtraction, solvent correction, and analysis was done using Biacore Insight Evaluation Software. Kinetic analysis was performed by fitting data to a 1:1 Langmuir interaction model and a steady-state affinity model was used to evaluate equilibrium binding affinity.

A further test has as its target T2, SMARCA2^BD (Homo sapiens, UniProt P51531).
T2 construct: SMARCA2^BD 1373–1511 ∆1400–1417; made in house
Put plainly: SPR binary binding of PROTAC to SMARCA2-functionalized surface. The following applies: 1:1 Langmuir binding model, SEM N=3 or SD N=2, read-out: KTP (binary affinity PROTAC / SMARCA2). Here is the method:
PROTACs (10 mM stocks in 100% DMSO) were diluted to 400 nM in a running buffer (20 mM Tris pH 7.5, 200 mM NaCl, 0.02% P20). This stock solution was then serially diluted in the running buffer containing final 2% DMSO. Solutions were injected in multi-cycle kinetic format without regeneration (contact time 60 s, flow rate 80 μL/min, dissociation time 120 s) using a stabilization period of 30 s and syringe wash (50% DMSO) between injections onto a high-density VBC-functionalized surface. For SMARCA2 analysis, biotinylated proteins were introduced on a Series S streptavidin (SA) sensor chip at high-density (3000-4000 RU).
as §2

Test [1] concerns the target T3, VBC / SMARCA2^BD ternary complex (Homo sapiens, UniProt P40337+P51531).
T3 construct: VHL (54-213), ElonginB (17-112) ElonginC (1-104); SMARCA2^BD 1373–1511 ∆1400–1417; His6 (N, cleaved yes); made in house
Put plainly: SPR ternary complex binding, VBC surface with preformed PROTAC/SMARCA2 bromodomain complex. The conditions noted are these: for Kd: SPR, VHL, PROTAC, error SEM, N = 3, read-out: KLPT (ternary complex binding affinity). The protocol: as §1
PROTACs (10 mM in 100% DMSO) were initially prepared at 200 nM in a running buffer (20 mM Tris pH 8.0, 250 mM NaCl, 1 mM TCEP, 0.01% P20, 0.2 mg/ml BSA) with a concentration of 2% DMSO. This solution was mixed at 1:1 ratio with a solution of 5 μM of the SMARCA2 or BRD4 bromodomain protein in the running buffer. This complex was then serially diluted in the running buffer containing 2.5 μM SMARCA2 or BRD4 and 2% DMSO (5-point five-fold serial dilution). For ternary experiments, solutions were injected sequentially in single-cycle kinetic format without regeneration (contact time 60 s, flow rate 80 μL/min, dissociation time 300 s) using a stabilization period of 60 s and syringe wash (50% DMSO) between injections onto a low-density VBC-functionalized surface.
as §2

T1 sequence (Q15369 17-112): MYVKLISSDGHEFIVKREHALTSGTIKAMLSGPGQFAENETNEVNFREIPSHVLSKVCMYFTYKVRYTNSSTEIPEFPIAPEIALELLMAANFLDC
T1 sequence (Q15370 1-104, further chain): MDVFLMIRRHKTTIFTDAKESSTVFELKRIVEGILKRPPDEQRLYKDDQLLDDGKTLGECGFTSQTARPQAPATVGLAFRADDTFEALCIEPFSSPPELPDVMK
T1 sequence (P40337 54-213): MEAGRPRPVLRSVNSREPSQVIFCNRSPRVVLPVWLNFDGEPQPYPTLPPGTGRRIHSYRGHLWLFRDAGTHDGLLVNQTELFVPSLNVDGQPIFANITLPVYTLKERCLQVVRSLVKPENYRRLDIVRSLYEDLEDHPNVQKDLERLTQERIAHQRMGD
T3 sequence (P40337 54-213): as above
T3 sequence (P51531 other isoform, or with tags, fused parts or gaps): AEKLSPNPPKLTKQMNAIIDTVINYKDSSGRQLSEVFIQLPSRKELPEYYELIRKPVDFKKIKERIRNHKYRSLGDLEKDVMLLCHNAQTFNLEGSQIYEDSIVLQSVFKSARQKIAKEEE
T3 sequence (Q15370 1-104, further chain): as the sequence (Q15370 1-104, further chain) above
T3 sequence (Q15369 17-112, further chain): as the sequence (Q15369 17-112) above
T2 sequence (P51531 1373-1493 isoform P51531-2): as the sequence (P51531 other isoform, or with tags, fused parts or gaps) above

As for `Cc1ncsc1-c1ccc([C@H](C)NC(=O)[C@@H]2C[C@@H](O)CN2C(=O)[C@@H](NC(=O)CCc2ccnc(N3CCN(c4cc(-c5ccccc5O)nnc4N)CC3)c2)C(C)(C)C)cc1` [Compound 8, (2S,4R)-1-((S)-2-(3-(2-(4-(3-Amino-6-(2-hydroxyphenyl)pyridazin-4-yl)piperazin-1-yl)pyridin-4-yl)propanamido)-3,3-dimethylbutanoyl)-4-hydroxy-N-((S)-1-(4-(4-methylthiazol-5-yl)phenyl)ethyl)pyrrolidine-2-carboxamide], the Kd at VHL/EloB/EloC (VBC) is 7 ± 2 nM; on SMARCA2^BD, 49 ± 12 nM; in test [1], 27 ± 3 nM. The “α (cooperativity, KLP/KLPT)” value in test [1] is recorded as 0.26.
The like results for `Cc1ncsc1-c1ccc([C@H](C)NC(=O)[C@@H]2C[C@@H](O)CN2C(=O)[C@@H](NC(=O)c2cccc(N3CCN(c4cc(-c5ccccc5O)nnc4N)CC3)c2)C(C)(C)C)cc1` [Compound 4, (2S,4R)-1-((S)-2-(3-(4-(3-Amino-6-(2-hydroxyphenyl)pyridazin-4-yl)piperazin-1-yl)benzamido)-3,3-dimethylbutanoyl)-4-hydroxy-N-((S)-1-(4-(4-methylthiazol-5-yl)phenyl)ethyl)pyrrolidine-2-carboxamide] were, in that order, 166 ± 15 nM, 232 ± 35 nM, 64 ± 7 nM and 2.6.
Consider `Cc1ncsc1-c1ccc([C@H](C)NC(=O)[C@@H]2C[C@@H](O)CN2C(=O)[C@@H](NC(=O)c2ccnc(N3CCN(c4cnnc(-c5ccccc5O)c4)CC3)c2)C(C)(C)C)cc1` [Compound 10, N-((S)-1-((2S,4R)-4-Hydroxy-2-(((S)-1-(4-(4-methylthiazol-5-yl)phenyl)ethyl)carbamoyl)pyrrolidin-1-yl)-3,3-dimethyl-1-oxobutan-2-yl)-2-(4-(6-(2-hydroxyphenyl)pyridazin-4-yl)piperazin-1-yl)isonicotinamide], for which the Kd at VHL/EloB/EloC (VBC) was determined as 60 ± 5 nM; at SMARCA2^BD, 745 ± 134 nM; in test [1], 250 ± 30 nM. Also, the “α (cooperativity, KLP/KLPT)” value in test [1] is 0.24.
Take `Cc1ncsc1-c1ccc([C@H](C)NC(=O)[C@@H]2C[C@@H](O)CN2C(=O)[C@@H](NC(=O)c2cccc(N3CCN(c4cc(-c5ccccc5O)nnc4N)CC3)n2)C(C)(C)C)cc1` [Compound 2, 6-(4-(3-Amino-6-(2-hydroxyphenyl)pyridazin-4-yl)piperazin-1-yl)-N-((S)-1-((2S,4R)-4-hydroxy-2-(((S)-1-(4-(4-methylthiazol-5-yl)phenyl)ethyl)carbamoyl)pyrrolidin-1-yl)-3,3-dimethyl-1-oxobutan-2-yl)picolinamide]: the values for the Kd (on VHL/EloB/EloC (VBC); on SMARCA2^BD; in test [1]) were 210 ± 18 nM, 196 ± 23 nM and 33 ± 4 nM, respectively. Also, the “α (cooperativity, KLP/KLPT)” value in test [1] came to 6.5.
For the compound `Cc1ncsc1-c1ccc([C@H](C)NC(=O)[C@@H]2C[C@@H](O)CN2C(=O)[C@@H](NC(=O)CN2CCN(c3cc(-c4ccccc4O)nnc3N)CC2)C(C)(C)C)cc1` [Compound 6, (2S,4R)-1-((S)-2-(2-(4-(3-Amino-6-(2-hydroxyphenyl)pyridazin-4-yl)piperazin-1-yl)acetamido)-3,3-dimethylbutanoyl)-4-hydroxy-N-((S)-1-(4-(4-methylthiazol-5-yl)phenyl)ethyl)pyrrolidine-2-carboxamide, reference compound], the Kd is 11 ± 1 nM at VHL/EloB/EloC (VBC), 14.2 ± 1.6 nM on SMARCA2^BD and 5.6 ± 2 nM in test [1]. Further, in test [1], the “α (cooperativity, KLP/KLPT)” value was determined as 2.
As for `Cc1ncsc1-c1ccc([C@H](C)NC(=O)[C@@H]2C[C@@H](O)CN2C(=O)[C@@H](NC(=O)c2ccnc(N3CCN(c4cc(-c5ccccc5O)nnc4N)CC3)c2)C(C)(C)C)cc1` [Compound 1, 2-(4-(3-Amino-6-(2-hydroxyphenyl)pyridazin-4-yl)piperazin-1-yl)-N-((S)-1-((2S,4R)-4-hydroxy-2-(((S)-1-(4-(4-methylthiazol-5-yl)phenyl)ethyl)carbamoyl)pyrrolidin-1-yl)-3,3-dimethyl-1-oxobutan-2-yl)isonicotinamide], the Kd on VHL/EloB/EloC (VBC) was determined as 60 ± 3 nM; at SMARCA2^BD it was 95 ± 25.5 nM; in test [1] it was 4.7 ± 1 nM. Moreover, the “α (cooperativity, KLP/KLPT)” value in test [1] is 12.8.
Regarding `Cc1ncsc1-c1ccc([C@H](C)NC(=O)[C@@H]2C[C@@H](O)CN2C(=O)[C@@H](NC(=O)c2csc(N3CCN(c4cc(-c5ccccc5O)nnc4N)CC3)n2)C(C)(C)C)cc1` [Compound 5, 2-(4-(3-Amino-6-(2-hydroxyphenyl)pyridazin-4-yl)piperazin-1-yl)-N-((S)-1-((2S,4R)-4-hydroxy-2-(((S)-1-(4-(4-methylthiazol-5-yl)phenyl)ethyl)carbamoyl)pyrrolidin-1-yl)-3,3-dimethyl-1-oxobutan-2-yl)thiazole-4-carboxamide], the Kd worked out at 84.7 ± 5 nM at VHL/EloB/EloC (VBC), 206 ± 34 nM at SMARCA2^BD and 46.8 ± 6.7 nM in test [1]. Also, in test [1], the “α (cooperativity, KLP/KLPT)” value stood at 1.8.
The like results for `Cc1ncsc1-c1ccc([C@H](C)NC(=O)[C@@H]2C[C@@H](O)CN2C(=O)[C@@H](NC(=O)Cc2ccnc(N3CCN(c4cc(-c5ccccc5O)nnc4N)CC3)c2)C(C)(C)C)cc1` [Compound 7, (2S,4R)-1-((S)-2-(2-(2-(4-(3-Amino-6-(2-hydroxyphenyl)pyridazin-4-yl)piperazin-1-yl)pyridin-4-yl)acetamido)-3,3-dimethylbutanoyl)-4-hydroxy-N-((S)-1-(4-(4-methylthiazol-5-yl)phenyl)ethyl)pyrrolidine-2-carboxamide] were, in that order, 9 ± 2 nM, 46 ± 8.5 nM, 80 ± 6 nM and 0.11.
For the compound `Cc1ncsc1-c1ccc(CNC(=O)C2C[C@@H](O)CN2C(=O)C(NC(=O)C2(F)CC2)C(C)(C)C)c(OCCc2ccc(CN3CCN(c4cc(-c5ccccc5O)nnc4N)CC3)cc2)c1` (stereo in doubt) [Compound 11, (2R,4R)-N-(2-(4-((4-(3-amino-6-(2-hydroxyphenyl)pyridazin-4-yl)piperazin-1-yl)methyl)phenethoxy)-4-(4-methylthiazol-5-yl)benzyl)-1-((R)-2-(1-fluorocyclopropane-1-carboxamido)-3,3-dimethylbutanoyl)-4-hydroxypyrrolidine-2-carboxamide, reference compound], the Kd on VHL/EloB/EloC (VBC) worked out at 59 ± 5 nM; on SMARCA2^BD, 302 ± 80 nM; in test [1], 108 ± 14 nM. The “α (cooperativity, KLP/KLPT)” value in test [1] is listed as 0.55.
